Activity calls are given as the source filed them. The calls are words filed in the database; no cut-off is given here.
Experiments:
HL-60 [1] = assay: Induction of apoptosis in human HL60 cells assessed as decrease in viable cells after 24 hrs by acridine orange/ethidium bromide staining based fluorescence microscopy; type: functional, cell-based
HL-60 [2] = assay: Induction of cell cycle arrest in human HL60 cells assessed as accumulation at sub-G0/G1 phase at 10 uM after 24 hrs by annexin V/propidium iodide staining based flow cytometry (reference value: 6.10 +/- 0.28 %); type: functional
HL-60 [3] = assay: Induction of apoptosis in human HL60 cells assessed as DNA fragmentation after 24 hrs by annexin V/propidium iodide staining based flow cytometry; type: functional, cell-based
[4] = Cytotoxicity against human SF295 cells after 72 hrs by MTT assay; type: functional, SF-295
HL-60 [5] = assay: Induction of apoptosis in human HL60 cells assessed as mitochondrial depolarization at 5 uM after 24 hrs by rhodamine-123 as fluorescent dye based flow cytometry; type: functional
HL-60 [6] = assay: Induction of apoptosis in human HL60 cells assessed as mitochondrial depolarization at 10 uM after 24 hrs by rhodamine-123 as fluorescent dye based flow cytometry; type: functional
HL-60 [7] = assay: Induction of cell cycle arrest in human HL60 cells assessed as accumulation at sub-G0/G1 phase at 5 uM after 24 hrs by annexin V/propidium iodide staining based flow cytometry (reference value: 6.10 +/- 0.28 %); type: functional
HL-60 [8] = assay: Induction of cell cycle arrest in human HL60 cells assessed as accumulation at S phase at 2.5 uM after 24 hrs by annexin V/propidium iodide staining based flow cytometry (reference value: 27.64 +/- 2.15 %); type: functional
HL-60 [9] = assay: Induction of apoptosis in human HL60 cells assessed as increase in apoptotic cells after 24 hrs by acridine orange/ethidium bromide staining based fluorescence microscopy; type: functional, cell-based
[10] = Cytotoxicity against mouse L929 cells after 72 hrs by MTT assay; type: cell-based; details: read-out: RC50
HL-60 [11] = assay: Induction of apoptosis in human HL60 cells assessed as chromatin condensation at 2.5 to 10 uM after 24 hrs by giemsa staining-based light microscopy analysis; type: functional, cell-based
HL-60 [12] = assay: Induction of apoptosis in human HL60 cells assessed as reduction in cellular and nuclear volumes at 2.5 to 10 uM after 24 hrs by giemsa staining-based light microscopy analysis; type: functional, cell-based
[13] = Cytotoxicity against human SF295 cells assessed as reduction in cell viability at 25 ug/mL after 72 hrs by MTT assay; type: functional, SF-295
HL-60 [14] = assay: Induction of apoptosis in human HL60 cells assessed as intranuclear vacuoles at 2.5 to 10 uM after 24 hrs by giemsa staining-based light microscopy analysis; type: functional, cell-based
HL-60 [15] = assay: Induction of apoptosis in human HL60 cells assessed as increase in apoptotic cells at 5 uM after 24 hrs by acridine orange/ethidium bromide staining based fluorescence microscopy; type: functional
[16] = Cytotoxicity against human HCT116 cells assessed as reduction in cell viability at 25 ug/mL after 72 hrs by MTT assay; type: functional, HCT-116
HL-60 [17] = assay: Induction of apoptosis in human HL60 cells assessed as phosphatidylserine externalization at 10 uM after 24 hrs by annexin V/propidium iodide staining based flow cytometry; type: functional
HL-60 [18] = assay: Induction of cell cycle arrest in human HL60 cells assessed as accumulation at G2/M phase at 10 uM after 24 hrs by annexin V/propidium iodide staining based flow cytometry (reference value: 19.04 +/- 1.10 %); type: functional
HL-60 [19] = assay: Induction of apoptosis in human HL60 cells assessed as chromatolysis at 2.5 to 10 uM after 24 hrs by giemsa staining-based light microscopy analysis; type: functional, cell-based
[20] = Cytotoxicity against human HCT116 cells after 72 hrs by MTT assay; type: functional, HCT-116
HL-60 [21] = assay: Induction of cell cycle arrest in human HL60 cells assessed as accumulation at G2/M phase at 5 uM after 24 hrs by annexin V/propidium iodide staining based flow cytometry (reference value: 19.04 +/- 1.10 %); type: functional
HL-60 [22] = assay: Induction of apoptosis in human HL60 cells assessed as increase in necrotic cells at 10 uM after 24 hrs by acridine orange/ethidium bromide staining based fluorescence microscopy; type: functional
HL-60 [23] = assay: Induction of apoptosis in human HL60 cells assessed as mitochondrial depolarization at 2.5 uM after 24 hrs by rhodamine-123 as fluorescent dye based flow cytometry; type: functional
HL-60 [24] = assay: Induction of apoptosis in human HL60 cells assessed as cytoplasmic budding at 2.5 to 10 uM after 24 hrs by giemsa staining-based light microscopy analysis; type: functional, cell-based
HL-60 [25] = assay: Induction of apoptosis in human HL60 cells assessed as increase in apoptotic cells at 10 uM after 24 hrs by acridine orange/ethidium bromide staining based fluorescence microscopy; type: functional
HL-60 [26] = assay: Induction of apoptosis in human HL60 cells assessed as decrease in viable cells at 5 uM after 24 hrs by acridine orange/ethidium bromide staining based fluorescence microscopy; type: functional
HL-60 [27] = assay: Induction of apoptosis in human HL60 cells assessed as phosphatidylserine externalization at 2.5 uM after 24 hrs by annexin V/propidium iodide staining based flow cytometry; type: functional
[28] = Cytotoxicity against human OVCAR8 cells after 72 hrs by MTT assay; type: functional, OVCAR-8
HL-60 [29] = assay: Induction of apoptosis in human HL60 cells assessed as increase in necrotic cells after 24 hrs by acridine orange/ethidium bromide staining based fluorescence microscopy; type: functional, cell-based
HL-60 [30] = assay: Induction of apoptosis in human HL60 cells assessed as decrease in viable cells at 10 uM after 24 hrs by acridine orange/ethidium bromide staining based fluorescence microscopy; type: functional
HL-60 [31] = assay: Induction of apoptosis in human HL60 cells assessed as mitochondrial depolarization after 24 hrs by rhodamine-123 as fluorescent dye based flow cytometry; type: functional, cell-based
HL-60 [32] = assay: Induction of cell cycle arrest in human HL60 cells assessed as accumulation at G0/G1 phase at 10 uM after 24 hrs by annexin V/propidium iodide staining based flow cytometry (reference value: 45.81 +/- 3.16 %); type: functional
HL-60 [33] = assay: Induction of cell cycle arrest in human HL60 cells assessed as accumulation at S phase at 10 uM after 24 hrs by annexin V/propidium iodide staining based flow cytometry (reference value: 27.64 +/- 2.15 %); type: functional
HL-60 [34] = assay: Induction of cell cycle arrest in human HL60 cells assessed as accumulation at G0/G1 phase at 5 uM after 24 hrs by annexin V/propidium iodide staining based flow cytometry (reference value: 45.81 +/- 3.16 %); type: functional
HL-60 [35] = assay: Induction of cell cycle arrest in human HL60 cells assessed as accumulation at G0/G1 phase at 2.5 uM after 24 hrs by annexin V/propidium iodide staining based flow cytometry (reference value: 45.81 +/- 3.16 %); type: functional
[36] = Cytotoxicity against human OVCAR8 cells assessed as reduction in cell viability at 25 ug/mL after 72 hrs by MTT assay; type: functional, OVCAR-8
HL-60 [37] = assay: Induction of cell cycle arrest in human HL60 cells assessed as accumulation at sub-G0/G1 phase at 2.5 uM after 24 hrs by annexin V/propidium iodide staining based flow cytometry (reference value: 6.10 +/- 0.28 %); type: functional
HL-60 [38] = assay: Induction of apoptosis in human HL60 cells assessed as phosphatidylserine externalization at 5 uM after 24 hrs by annexin V/propidium iodide staining based flow cytometry; type: functional
[39] = Cytotoxicity against human HL60 cells after 72 hrs by MTT assay; type: functional, HL-60
HL-60 [40] = assay: Induction of cell cycle arrest in human HL60 cells assessed as accumulation at G2/M phase at 2.5 uM after 24 hrs by annexin V/propidium iodide staining based flow cytometry (reference value: 19.04 +/- 1.10 %); type: functional
HL-60 [41] = assay: Induction of cell cycle arrest in human HL60 cells assessed as accumulation at S phase at 5 uM after 24 hrs by annexin V/propidium iodide staining based flow cytometry (reference value: 27.64 +/- 2.15 %); type: functional

O=C1O/C(=C\c2ccc(Br)cc2)C(Cl)=C1Cl
Activity (HL-60 [1]): Dose-dependent effect
Activity (HL-60 [2]): 51.26%
Activity (HL-60 [3]): Dose-dependent effect
RC50 [4]: 14.68 µM
Activity (HL-60 [5]): 37.1%
Activity (HL-60 [6]): 56.2%
Activity (HL-60 [7]): 29.63%
Activity (HL-60 [8]): 24.16%
Activity (HL-60 [9]): Dose-dependent effect
CC50 at 72 h [10]: > 50 µM
Activity (HL-60 [11]): Active
Activity (HL-60 [12]): Active
Activity [13]: 94.12%
Activity (HL-60 [14]): Active
Activity (HL-60 [15]): 24.1%
Activity [16]: 98.27%
Activity (HL-60 [17]): 29%
Activity (HL-60 [18]): 2.71%
Activity (HL-60 [19]): Active
RC50 [20]: 8.18 µM
Activity (HL-60 [21]): 4.68%
Activity (HL-60 [22]): 12.7%
Activity (HL-60 [23]): 21.7%
Activity (HL-60 [24]): Active
Activity (HL-60 [25]): 46.8%
Activity (HL-60 [26]): 17.7%
Activity (HL-60 [27]): 9.5%
RC50 [28]: 13.68 µM
Activity (HL-60 [29]): Dose-dependent effect
Activity (HL-60 [30]): 47.3%
Activity (HL-60 [31]): Dose-dependent effect
Activity (HL-60 [32]): 33.59%
Activity (HL-60 [33]): 7.26%
Activity (HL-60 [34]): 43.19%
Activity (HL-60 [35]): 45.29%
Activity [36]: 98.99%
Activity (HL-60 [37]): 17.5%
Activity (HL-60 [38]): 19%
RC50 [39]: 3 µM
Activity (HL-60 [40]): 7.39%
Activity (HL-60 [41]): 14.77%
